Structures can show the parent of a compound that is named as a salt. Where two headings read alike, the source gives them in different places.
Assays:
[1] = test system: CO2-induced ammesia in mice; test: Nootropic action: effect on CO2-induced amnesia in mice (passive avoidance response); type: in vivo, mice (male ICR); conditions: i.p., 30 min before the test, saline = 100, ** p < 0.01
Protocol: Effect of the compounds (I) and (II) on impairment of passive avoidance response, induced by exposing mice to 100% CO2 gas, was evaluated. Male ICR mice (Japan Clea) aged 5 weeks were used. The experimental apparatus consisted of two compartments, and one illuminated chamber (9×9×25 cm) was connected to dark chamber (25×25×30 cm) with a guillotine door. Each mouse was placed in the illuminated compartment and then allowed to enter the dark one. When the mouse entered the dark chamber, the door was closed and AC 0.5 mA footshock was applied to the floor grid of the dark chamber. The mouse can memorize the experience receiving the uncomfortable stimulus for a few weeks. Next, the consolidation processes of memory were disturbed by an experimental manipulation: Each mouse was placed under the hypoxic condition by being placed into a 4l desiccator filled with 100% CO2 gas, immediately after receiving the footshock in the dark chamber. When his respiratory function was stopped, the mouse was taken out from the desiccator and given artificial respiration till recovering spontaneous respiration. This procedure disturbed the consolidation of the memory (experience of footshock). On the next day, a retention test was performed whether the mouse memorizes the footshock or not. In the test, the mouse was again placed in the illuminated compartment and the latency to enter the dark compartment was measured.
The mice subjected to hypoxia entered the dark compartment with short latency, 10-20 sec. […] The ameliorating effect of compounds on the amnesia induced by hypoxia was evaluated by the latency time, and was expressed as the percent change of the mean time of the vehicle-treated control group (Table 5.). The compounds were suspended in 5% arabic gum solution, and administered intraperitoneally (i.p.) 30 min. before the test.

LD50 value, oral, mice = conditions: mouse, in vivo, p.o., ten mice per group
From the text: LD50 value Ten mice were used for each group. LD50 value was estimated with the dose (mg/kg, p.o.) which induced death in 50% of mice.

mice = test: General symptoms in mice (salivation, lachrymation, hypothermia); type: in vivo; design: key: +++: marked; ++: moderate; +: mild; non-detected; conditions: 100 mg/kg orally; observed for 4 hours
Protocol: Four mice were used for each group. Mice were placed in stainless steel cages (13×18×25 cm) and after a 1-hr habituation period the compounds were administered. […] Peripheral and central effects of the compounds were estimated with the incidences of salivation and lachrymation, and a grade of hypothermia, respectively.
The compounds which were soluble in saline were dissolved in saline and the others were suspended in 5% arabic gum solution. Each compound was administered orally (100 mg/kg).
Scorings of the symptoms were made as follows.

Acetylcholinesterase = molecular target: T1, Acetylcholinesterase (Rattus norvegicus, UniProt P37136); test: Acetylcholinesterase inhibiting activity using (acetyl-[3H])-acetylcholine, S1 fraction of rat cerebral cortex homogenate; type: biochemical, male Wistar rat
T1 construct: the S1 fraction of a male Wistar rat cerebral cortex homogenate was used as a cholinesterase source; from tissue; host or cells: male Wistar rat cerebral cortex homogenate, S1 fraction
Protocol: The compounds according to the invention were examined for cholinesterase inhibiting activity using (acetyl-[^3 H])-acetylcholine. Thus, the S1 fraction of a male Wistar rat cerebral cortex homogenate was used as a cholinesterase source, and (acetyl-[^3 H])-acetylcholine (as substrate) and each test compound according to the invention were added and, after 30 minutes of incubation, the reaction was terminated. A toluene type scintillator was added, and the mixture was shaken, whereby the reaction product [^3 H]-acetic acid was transferred to the toluene layer. The cholinesterase activity was determined by counting said [^3 H]-acetic acid with a liquid scintillation counter.
The cholinesterase inhibiting activity of each test compound was expressed in terms of 50% inhibitory concentration (IC50).

[2] = rat cerebral cortex homogenate S1 fraction, 30 minutes of incubation, read-out: Acetylcholinesterase inhibiting activity IC50

T1 sequence (P37136 32-614): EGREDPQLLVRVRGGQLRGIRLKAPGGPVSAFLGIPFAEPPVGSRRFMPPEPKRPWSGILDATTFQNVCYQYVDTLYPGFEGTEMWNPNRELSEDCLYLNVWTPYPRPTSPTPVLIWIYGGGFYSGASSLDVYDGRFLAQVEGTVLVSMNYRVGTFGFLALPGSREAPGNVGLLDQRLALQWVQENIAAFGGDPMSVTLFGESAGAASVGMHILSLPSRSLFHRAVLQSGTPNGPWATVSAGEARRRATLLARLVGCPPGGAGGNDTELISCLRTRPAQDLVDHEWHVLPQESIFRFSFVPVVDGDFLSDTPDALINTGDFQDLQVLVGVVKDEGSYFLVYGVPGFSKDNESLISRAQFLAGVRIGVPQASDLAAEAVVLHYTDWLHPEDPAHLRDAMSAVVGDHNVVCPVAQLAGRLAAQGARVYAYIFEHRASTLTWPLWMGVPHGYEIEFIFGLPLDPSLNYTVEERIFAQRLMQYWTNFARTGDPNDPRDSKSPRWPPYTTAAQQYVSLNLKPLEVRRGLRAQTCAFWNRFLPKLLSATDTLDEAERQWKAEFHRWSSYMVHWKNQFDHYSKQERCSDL

For CNC(=O)Oc1ccc2c(c1)[C@]1(C)CCN(C)[C@@H]1N2C [Physostigmine, physostigmine, reference compound], the “Anti-amnesia (latency, percent change of the mean time of the vehicle-treated control group)” value ([1]; 0.3 mg/kg) was 210% and the LD50 (LD50 value, oral, mice) was 2.6 mg/kg.

With CCN(CCCCCN1C(=O)c2ccc(NC(C)=O)cc2C1=O)Cc1ccccc1 [Compound 11-1] the Hypothermia (mice) was “+”, the Lachrymation (mice) was “++” and the Salivation (mice) was “-”. The “Anti-amnesia (latency, percent change of the mean time of the vehicle-treated control group)” value ([1]; 1 mg/kg) was 455%, the LD50 (LD50 value, oral, mice) was greater than 300 mg/kg and the IC50 (Acetylcholinesterase) was 0.32 µM.

For CCN(CCCCCNC(=O)/C=C/c1ccc([N+](=O)[O-])cc1)Cc1ccccc1OC [Compound 18-2], the IC50 (Acetylcholinesterase; [2]) was 0.29 µM.

With CN(CCCCN1C(=O)c2ccc(N)cc2C1=O)Cc1ccccc1 [Compound 3, 5-Amino-2-[4-(N-benzyl-N-methyl)aminobutyl]-1H-isoindole-1,3(2H)-dione hydrochloride] the IC50 (Acetylcholinesterase; [2]) was 34 µM.

CN(CCCCNC(=O)/C=C/c1cccc([N+](=O)[O-])c1)Cc1ccccc1 [Compound 14-1] showed an IC50 (Acetylcholinesterase; [2]) of 13 µM.

CCN(CCCCCN(C(C)=O)C(=O)/C=C/c1ccc([N+](=O)[O-])c(OC(C)=O)c1)Cc1ccccc1 [Compound 16-10] showed an IC50 (Acetylcholinesterase; [2]) of 0.28 µM.

For CCN(CCCCCNC(=O)/C=C/c1ccc(OC)c(OC)c1)Cc1ccccc1 [Compound 14-11], the IC50 (Acetylcholinesterase; [2]) was 5.4 µM.

CCN(CCCCCN1C(=O)c2ccc(OC)cc2C1=O)Cc1ccccc1 [Compound 12-6] showed an IC50 (Acetylcholinesterase; [2]) of 0.71 µM.

In the case of CCN(CCCCCNC(=O)/C=C/c1ccc(OC)c(OC)c1)Cc1ccccc1OC [Compound 18-5], the IC50 (Acetylcholinesterase; [2]) is reported as 0.43 µM.

With CCN(CCCCCN1C(=O)c2ccc([N+](=O)[O-])cc2C1=O)Cc1ccccc1 [Compound 2-8] the Hypothermia (mice) was “+”, the Lachrymation (mice) was “++” and the Salivation (mice) was “+”. For the same molecule, the “Anti-amnesia (latency, percent change of the mean time of the vehicle-treated control group)” value ([1]; 3 mg/kg) was 326%, the LD50 (LD50 value, oral, mice) was 300 mg/kg and the IC50 (Acetylcholinesterase; [2]) was 0.15 µM.

Molecule CCN(CCCCCNC(=O)/C=C/c1ccc(N)cc1)Cc1ccccc1 [Compound 20-3] has an IC50 (Acetylcholinesterase; [2]) of 10 µM.

Work on CCN(CCCCCN(C(C)=O)C(=O)/C=C/c1ccc(Cl)cc1)Cc1ccccc1 [Compound 16-5] yielded an IC50 (Acetylcholinesterase; [2]) of 2.2 µM.

With CC(C)N(CCCCCN1C(=O)c2ccc([N+](=O)[O-])cc2C1=O)Cc1ccccc1 [Compound 2-12] the IC50 (Acetylcholinesterase; [2]) was 0.83 µM.

In the case of CN(CCCCNC(=O)/C=C/c1ccc([N+](=O)[O-])cc1)Cc1ccccc1 [Compound 9, (E)-N-[4-(N-Methyl-N-benzyl)aminobutyl]-3-(4-nitrophenyl)-2-propenamide], the IC50 (Acetylcholinesterase; [2]) is reported as 14 µM.

For CN(CCCCNC(=O)/C=C/c1ccccc1[N+](=O)[O-])Cc1ccccc1 [Compound 14-2], the IC50 (Acetylcholinesterase; [2]) was 18 µM.

For CC(=O)Nc1ccc2c(c1)C(=O)N(CCCCN(C)Cc1ccccc1)C2=O [Compound 5-1], the IC50 (Acetylcholinesterase; [2]) was 11 µM.

For CCN(CCCCCN1C(=O)c2ccc(NS(=O)(=O)Cc3ccccc3)cc2C1=O)Cc1ccccc1 [Compound 11-5], the IC50 (Acetylcholinesterase; [2]) was 0.24 µM.

CCOC(=O)c1ccc2c(c1)C(=O)N(CCCCCN(CC)Cc1ccccc1)C2=O [Compound 17, Ethyl 2-[5-(N-benzyl-N-ethyl)aminopentyl]-1,3(2H)-dioxo-1H-isoindole-5-carboxylate.hydrochloride] gave an IC50 (Acetylcholinesterase; [2]) of 0.68 µM.

For CCN(CCCCCN1C(=O)c2ccc([N+](=O)[O-])cc2C1=O)Cc1ccc(Cl)cc1 [Compound 2-19], the IC50 (Acetylcholinesterase; [2]) was 0.24 µM.

CCN(CCCCCN(C(C)=O)C(=O)/C=C/c1ccc(Cl)c([N+](=O)[O-])c1)Cc1ccccc1 [Compound 16-11] gave an IC50 (Acetylcholinesterase; [2]) of 0.41 µM.

CCN(CCCCCN1C(=O)c2ccc([N+](=O)[O-])cc2C1=O)Cc1ccc(C)cc1 [Compound 2-17] gave an IC50 (Acetylcholinesterase; [2]) of 0.37 µM.

Molecule CCN(CCCCCN1C(=O)c2ccc([N+](=O)[O-])cc2C1=O)Cc1ccccc1OC [Compound 2-25] has an IC50 (Acetylcholinesterase; [2]) of 0.028 µM.

In the case of O=C1c2ccc([N+](=O)[O-])cc2C(=O)N1CCCCN(CCO)Cc1ccccc1 [Compound 2-4], the IC50 (Acetylcholinesterase; [2]) is reported as 1.5 µM.

For CCN(CCCCCN1C(=O)c2ccc(NC(=O)Cc3ccccc3)cc2C1=O)Cc1ccccc1 [Compound 11-3], the IC50 (Acetylcholinesterase; [2]) was 1.5 µM.

With CCN(CCCCCN(C(C)=O)C(=O)/C=C/c1ccc([N+](=O)[O-])cc1)Cc1ccccc1 [Compound 16-2] the IC50 (Acetylcholinesterase; [2]) was 0.56 µM.

CCN(CCCCCNC(=O)/C=C/c1ccc(Cl)c([N+](=O)[O-])c1)Cc1ccccc1 [Compound 14-25] showed an IC50 (Acetylcholinesterase; [2]) of 1.9 µM.

With CCN(CCCCCN(C(C)=O)C(=O)/C=C/c1cccc(NC(C)=O)c1)Cc1ccccc1 [Compound 21-1] the IC50 (Acetylcholinesterase; [2]) was 1.8 µM.
